Source: patent US6737383B1, “Herbicidal oxadiazolidines” (priority 1999, dated 2004)

Experiments:
[1] = test system: bedstraw; experiment: Test B pre/postemergence bedstraw; type: in vivo, Galium aparine; conditions: Postemergence, Rate 62 g/ha; scale 0 to 10, 0 is no effect, 10 is complete control
Procedure, shortened: (§1)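 Response is a visual 0-to-10 score relative to untreated plants, where 0 means no effect and 10 means complete control, taken twelve to sixteen days after application. Treatments went onto soil at planting and onto foliage of 1- to 4-leaf plants, using a surfactant-containing non-phytotoxic solvent.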

[2] = test system: blackgrass; experiment: Test B pre/postemergence blackgrass; type: in vivo, Alopecurus myosuroides
Procedure, shortened: as §1

[3] = test system: surinam grass; experiment: Test B pre/postemergence surinam grass; type: in vivo, Brachiaria decumbens
Procedure, shortened: as §1

[4] = test system: cocklebur; experiment: Test B pre/postemergence cocklebur; type: in vivo, Xanthium strumarium
Procedure, shortened: as §1

[5] = test system: corn; experiment: Test B pre/postemergence corn; type: in vivo, Zea mays
Procedure, shortened: as §1

[6] = test system: crabgrass; experiment: Test B pre/postemergence crabgrass; type: in vivo, Digitaria sanguinalis
Procedure, shortened: as §1

[7] = test system: giant foxtail; experiment: Test B pre/postemergence giant foxtail; type: in vivo, Setaria faberii
Procedure, shortened: as §1

[8] = test system: morningglory; experiment: Test B pre/postemergence morningglory; type: in vivo, Ipomoea hederacea
Procedure, shortened: as §1

[9] = test system: pigweed; experiment: Test B pre/postemergence pigweed; type: in vivo, Amaranthus retroflexus
Procedure, shortened: as §1

[10] = test system: rape; experiment: Test B pre/postemergence rape; type: in vivo, Brassica napus
Procedure, shortened: as §1

[11] = test system: soybean; experiment: Test B pre/postemergence soybean; type: in vivo, Glycine max
Procedure, shortened: as §1

[12] = test system: sugar beet; experiment: Test B pre/postemergence sugar beet; type: in vivo, Beta vulgaris
Procedure, shortened: as §1

[13] = test system: velvetleaf; experiment: Test B pre/postemergence velvetleaf; type: in vivo, Abutilon theophrasti
Procedure, shortened: as §1

[14] = test system: wheat; experiment: Test B pre/postemergence wheat; type: in vivo, Triticum aestivum
Procedure, shortened: as §1

[15] = test system: wild oat; experiment: Test B pre/postemergence wild oat; type: in vivo, Avena fatua
Procedure, shortened: as §1

[16] = test system: purple nutsedge; experiment: Test B pre/postemergence purple nutsedge; type: in vivo, Cyperus rotundus
Procedure, shortened: as §1

[17] = test system: rice; experiment: Test B flood test rice; type: in vivo, Oryza sativa
Procedure, shortened: (§2)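 Read-out is a visual response score from 0 (no effect) to 10 (complete control), assigned by comparison with untreated controls. Treatment was applied at the 2-leaf stage, and plants stayed in the greenhouse for twelve to sixteen days before scoring.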

[18] = test system: smallflower flatsedge; experiment: Test B flood test smallflower flatsedge; type: in vivo, Cyperus difformis
Procedure, shortened: as §2

[19] = test system: duck salad; experiment: Test B flood test duck salad; type: in vivo, Heteranthera limosa
Procedure, shortened: as §2

[20] = test system: bamyardgrass; experiment: Test B flood test barnyardgrass; type: in vivo, Echinochloa crus-galli
Procedure, shortened: as §2

[21] = Postemergence, Rate 62 g/ha, scale 0 to 10, 0 is no effect, 10 is complete control
[22] = Postemergence, Rate 250 g/ha, scale of 0 to 10, 0 is no effect, 10 is complete control
[23] = Postemergence, Rate 500 g/ha, scale of 0 to 10 where 0 is no effect and 10 is complete control
[24] = Preemergence, Rate 62 g/ha, scale of 0 to 10 where 0 is no effect and 10 is complete control
[25] = Preemergence, Rate 125 g/ha, scale of 0 to 10 where 0 is no effect and 10 is complete control
[26] = Preemergence, Rate 250 g/ha, scale 0 to 10 (0 no effect, 10 complete control)
[27] = Preemergence, Rate 500 g/ha, scale of 0 to 10 where 0 is no effect and 10 is complete control
[28] = Postemergence, Rate 125 g/ha, scale of 0 to 10 where 0 is no effect and 10 is complete control
[29] = Rate 62 g/ha, flood test species, Pre-emergence, visual evaluation after twelve to sixteen days
[30] = Rate 125 g/ha, under heading Pre-emergence, flood test species, visual evaluation after twelve to sixteen days
[31] = Rate 250 g/ha, Pre-emergence (flood test species), scale 0 to 10, 0 is no effect, 10 is complete control
[32] = Rate 500 g/ha, Pre-emergence section of Table B, 0 to 10 scale (0 no effect, 10 complete control)

CC(C)N(C(=O)n1oc(=O)n(CCCC#N)c1=O)c1ccc(F)cc1 [Compound 647]
Plant response rating, Bedstraw [1]: 0 | Plant response rating, Blackgrass [2, 21]: 6 | Blackgrass plant response rating [2, 22]: 7 | Plant response rating, Blackgrass [2, 23]: 8 | Blackgrass plant response rating [2, 24]: 7 | Blackgrass plant response rating [2, 25]: 9 | Plant response rating, Blackgrass [2, 26]: 10 | Plant response rating, Blackgrass [2, 27]: 10 | Plant response rating, B. signalgrass [3, 21]: 4 | Plant response rating, B. signalgrass [3, 28]: 6 | B. signalgrass plant response rating [3, 22]: 7 | Plant response rating, B. signalgrass [3, 23]: 8 | B. signalgrass plant response rating [3, 24]: 3 | B. signalgrass plant response rating [3, 25]: 7 | Plant response rating, B. signalgrass [3, 26]: 9 | Plant response rating, B. signalgrass [3, 27]: 10 | Plant response rating, Cocklebur [4, 21]: 0 | Cocklebur plant response rating [4, 28]: 0 | Cocklebur plant response rating [4, 22]: 4 | Plant response rating, Cocklebur [4, 23]: 4 | Cocklebur plant response rating [4, 24]: 0 | Cocklebur plant response rating [4, 25]: 0 | Plant response rating, Cocklebur [4, 26]: 1 | Plant response rating, Cocklebur [4, 27]: 7 | Plant response rating, Corn [5, 21]: 0 | Corn plant response rating [5, 28]: 2 | Corn plant response rating [5, 22]: 5 | Plant response rating, Corn [5, 23]: 6 | Corn plant response rating [5, 24]: 0 | Corn plant response rating [5, 25]: 3 | Plant response rating, Corn [5, 26]: 5 | Plant response rating, Corn [5, 27]: 10 | Plant response rating, Crabgrass [6, 21]: 7 | Crabgrass plant response rating [6, 28]: 9 | Crabgrass plant response rating [6, 22]: 9 | Plant response rating, Crabgrass [6, 23]: 9 | Crabgrass plant response rating [6, 24]: 8 | Crabgrass plant response rating [6, 25]: 8 | Plant response rating, Crabgrass [6, 26]: 9 | Plant response rating, Crabgrass [6, 27]: 9 | Plant response rating, Giant foxtail [7, 21]: 8 | Giant foxtail plant response rating [7, 28]: 9 | Giant foxtail plant response rating [7, 22]: 9 | Plant response rating, Giant foxtail [7, 23]: 9 | Giant foxtail plant response rating [7, 24]: 9 | Giant foxtail plant response rating [7, 25]: 10 | Plant response rating, Giant foxtail [7, 26]: 10 | Plant response rating, Giant foxtail [7, 27]: 10 | Plant response rating, Morningglory [8, 21]: 0 | Morningglory plant response rating [8, 28]: 0 | Morningglory plant response rating [8, 22]: 2 | Plant response rating, Morningglory [8, 23]: 6 | Morningglory plant response rating [8, 24]: 0 | Morningglory plant response rating [8, 25]: 0 | Plant response rating, Morningglory [8, 26]: 7 | Plant response rating, Morningglory [8, 27]: 7 | Plant response rating, Redroot pigweed [9, 21]: 0 | Redroot pigweed plant response rating [9, 28]: 4 | Redroot pigweed plant response rating [9, 24]: 10 | Redroot pigweed plant response rating [9, 25]: 10 | Plant response rating, Redroot pigweed [9, 26]: 10 | Plant response rating, Redroot pigweed [9, 27]: 10 | Plant response rating, Rape [10, 21]: 0 | Rape plant response rating [10, 28]: 0 | Plant response rating, Rape [10, 23]: 7 | Rape plant response rating [10, 24]: 5 | Rape plant response rating [10, 25]: 8 | Plant response rating, Rape [10, 26]: 10 | Plant response rating, Rape [10, 27]: 10 | Plant response rating, Soybean [11, 21]: 2 | Soybean plant response rating [11, 28]: 3 | Soybean plant response rating [11, 24]: 0 | Soybean plant response rating [11, 25]: 0 | Plant response rating, Soybean [11, 26]: 1 | Plant response rating, Soybean [11, 27]: 1 | Plant response rating, Sugarbeets [12, 21]: 1 | Sugarbeets plant response rating [12, 28]: 2 | Sugarbeets plant response rating [12, 24]: 7 | Sugarbeets plant response rating [12, 25]: 8 | Plant response rating, Sugarbeets [12, 26]: 8 | Plant response rating, Sugarbeets [12, 27]: 8 | Plant response rating, Velvetleaf [13, 21]: 5 | Velvetleaf plant response rating [13, 28]: 5 | Velvetleaf plant response rating [13, 24]: 6 | Velvetleaf plant response rating [13, 25]: 8 | Plant response rating, Velvetleaf [13, 26]: 8 | Plant response rating, Velvetleaf [13, 27]: 9 | Plant response rating, Wheat [14, 21]: 0 | Wheat plant response rating [14, 28]: 3 | Wheat plant response rating [14, 24]: 1 | Wheat plant response rating [14, 25]: 6 | Plant response rating, Wheat [14, 26]: 8 | Plant response rating, Wheat [14, 27]: 8 | Plant response rating, Wild oats [15, 21]: 0 | Wild oats plant response rating [15, 28]: 0 | Wild oats plant response rating [15, 24]: 5 | Wild oats plant response rating [15, 25]: 8 | Plant response rating, Wild oats [15, 26]: 9 | Plant response rating, Wild oats [15, 27]: 10 | Plant response rating, Nutsedge [16, 21]: 0 | Nutsedge plant response rating [16, 28]: 0 | Plant response rating, Nutsedge [16, 23]: 6 | Nutsedge plant response rating [16, 24]: 0 | Nutsedge plant response rating [16, 25]: 0 | Plant response rating, Rice (0 to 10 scale, 0 is no effect, 10 is complete control) [17, 29]: 0 | Rice plant response rating (0 to 10 scale, 0 is no effect, 10 is complete control) [17, 30]: 0 | Rice plant response rating [17, 31]: 0 | Rice plant response rating [17, 32]: 0 | Plant response rating, S. Flatsedge (0 to 10 scale, 0 is no effect, 10 is complete control) [18, 29]: 0 | S. Flatsedge plant response rating (0 to 10 scale, 0 is no effect, 10 is complete control) [18, 30]: 0 | S. Flatsedge plant response rating [18, 31]: 0 | S. Flatsedge plant response rating [18, 32]: 0 | Plant response rating, Ducksalad (0 to 10 scale, 0 is no effect, 10 is complete control) [19, 29]: 0 | Ducksalad plant response rating (0 to 10 scale, 0 is no effect, 10 is complete control) [19, 30]: 0 | Ducksalad plant response rating [19, 31]: 0 | Ducksalad plant response rating [19, 32]: 0 | Plant response rating, Barnyardgrass (0 to 10 scale, 0 is no effect, 10 is complete control) [20, 29]: 0 | Barnyardgrass plant response rating (0 to 10 scale, 0 is no effect, 10 is complete control) [20, 30]: 0 | Barnyardgrass plant response rating [20, 31]: 0 | Barnyardgrass plant response rating [20, 32]: 0
